Converted amounts (≈) assume the structure as drawn.
Each compound was assayed on Klebsiella pneumoniae (assay: Antimicrobial activity against multidrug-resistant Klebsiella pneumoniae isolate Kpn-DK2 by broth microdilution method).
Format: functional
In the case of `CC1(C)[C@H](C(=O)O)N2C(=O)C[C@H]2S1(=O)=O` [SULBACTAM], the MIC is reported as 32 µg/mL (≈ 137 µM).
GENTAMICIN showed an MIC of over 64 µg/mL.
`C[C@H]1[C@H](NC(=O)/C(=N\OC(C)(C)C(=O)O)c2csc(N)n2)C(=O)N1S(=O)(=O)O` [AZTREONAM] showed an MIC of over 64 µg/mL.
`Nc1nc(/C(=N/O)C(=O)N[C@@H]2C(=O)N3C(C(=O)O)=C(/C=C4\CCN([C@@H]5CCNC5)C4=O)CS[C@H]23)ns1` [CEFTOBIPROLE] gave an MIC of over 32 µg/mL.
With `CO/N=C(\C(=O)N[C@@H]1C(=O)N2C(C(=O)[O-])=C(C[N+]3(C)CCCC3)CS[C@H]12)c1csc(N)n1` the MIC was over 64 µg/mL.
`CCN1CCN(C(=O)N[C@@H](C(=O)N[C@@H]2C(=O)N3C(C(=O)O)=C(CSc4nnnn4C)CS[C@H]23)c2ccc(O)cc2)C(=O)C1=O` [CEFOPERAZONE] showed an MIC of over 64 µg/mL.
`COc1cc(Cc2cnc(N)nc2N)cc(OC)c1OC` [TRIMETHOPRIM] was tested, and the MIC was over 32 µg/mL.
With `CN(C)c1cc(NC(=O)CNC(C)(C)C)c(O)c2c1C[C@H]1C[C@H]3[C@H](N(C)C)C(O)=C(C(N)=O)C(=O)[C@@]3(O)C(O)=C1C2=O` [TIGECYCLINE] the MIC was 4 µg/mL (≈ 6.83 µM).
Work on `CC(C)(O/N=C(\C(=O)N[C@@H]1C(=O)N2C(C(=O)[O-])=C(C[n+]3ccccc3)CS[C@H]12)c1csc(N)n1)C(=O)O` [CEFTAZIDIME] yielded an MIC of over 64 µg/mL.
In the case of `C[C@@H](O)[C@H]1C(=O)N2C(C(=O)O)=C(SCCNC=N)C[C@H]12` [IMIPENEM ANHYDROUS], the MIC is reported as 32 µg/mL (≈ 107 µM).
Compound COLISTIN has an MIC of over 64 µg/mL.
`CCN1CCN(C(=O)N[C@@H](C(=O)N[C@@H]2C(=O)N3[C@@H]2SC(C)(C)[C@@H]3C(=O)O)c2ccccc2)C(=O)C1=O` [PIPERACILLIN] was tested, and the MIC was over 256 µg/mL.
`C[C@@H](O)[C@H]1C(=O)N2C(C(=O)O)=C(S[C@@H]3CN[C@H](CNS(N)(=O)=O)C3)[C@H](C)[C@H]12` [DORIPENEM] was tested, and the MIC was 16 µg/mL (≈ 38 µM).
POLYMYXIN B showed an MIC of over 64 µg/mL.
`CO/N=C(\C(=O)N[C@@H]1C(=O)N2C(C(=O)O)=C(COC(C)=O)CS[C@H]12)c1csc(N)n1` [CEFOTAXIME] was tested, and the MIC was over 128 µg/mL.
`CC1(C)S[C@@H]2[C@H](NC(=O)[C@H](N)c3ccccc3)C(=O)N2[C@H]1C(=O)O` [AMPICILLIN] gave an MIC of over 64 µg/mL.
`C[C@]1(Cn2ccnn2)[C@H](C(=O)O)N2C(=O)C[C@H]2S1(=O)=O` [TAZOBACTAM] gave an MIC of 4 µg/mL (≈ 13.3 µM).
